# Read-outs that look alike come from different tables or passages of the source. Marks after values point to notes of the source that are not given here.
# Key:
# [1] = system: Pax6, Otx2, Sox2, Sox3, NCAM, Vent1; experiment: RT-PCR of neural markers (animal caps or embryos); format: cell-based, Xenopus laevis
# From the text: RT-PCR Animal caps were dissected from embryos at stage 8.5 and cultured in 67% Leibovitz's L-15 medium, pH 7.5 in the presence or absence of varied concentration of alcohol until stage 22. Total RNA was extracted from cultured animal caps with Trizol reagent (Invitrogen). Primer sets and PCR conditions for NCAM and Pax6 have been described in our previous reports (Peng, Neurobiol. Dis., 2004; Peng, J. Mol. Biol., 2004). PCR products were subject to electrophoresis on TBE gel and visualized by ethidium bromide staining.
# Animal cap explant assay. […] Total RNA was extracted from animal caps or whole embryos using TRIZOL reagent (Invitrogen). The total RNA was reverse transcribed using the Superscript system (Invitrogen), and the first strand cDNA of the target gene amplified by PCR.
# The Xenopus animal cap is composed of pluripotent cells that can be induced to form neural, mesodermal, or epidermal tissue, and is a useful tissue to assess the activity of various factors on neural development. Animal caps were treated with varied concentrations of alcohol as indicated.
# [2] = system: Xenopus laevis tadpole brain; experiment: Histological analysis of brain injury (coronal brain sections of tadpoles)
# From the text: Histological analysis of brain injury. Embryos were fixed in 2% paraformaldehyde, dehydrated, embedded in paraffin. The embryos were sectioned coronally through the head and stained with hematoxylin and eosin.
# The EF-1α transcript was detected as an internal control for equal RNA load.
# [3] = system: alcohol-induced ROS production; experiment: ROS measurement (hydrogen peroxide level in embryos); format: in vivo, Xenopus laevis; conditions: vitamin C pretreatment 2 hours before 0.6% ethanol
# Method: (A) Embryos were pretreated with or without vitamin C two hours before alcohol treatment (0.6%, 12 h, from stage 13 to 22). The embryos were harvested at stage 22 and the hydrogen peroxide level measured by the colorimetric quantitation of hydrogen peroxide method (total hydroperoxides), according to the protocols provided by the manufacturer (BIOXYTECH H202-560 kit, OXIS International, Inc., USA); (B) The NF-κB mediated transcriptional activity was measured using NF-κB luciferase reporter plasmid (pLuc-NF-κB) containing IL-6 promoter region with four repeats of NF-κB binding sites.
# ROS measurement. […] At the end of the experiment, embryos were harvested and total ROS content was determined by the calorimetric quantitation of hydrogen peroxide method (total hydroperoxides), following protocols provided by the manufacturer (BIOXYTECH H202-560 kit, OXIS International, Inc. USA).
# Xenopus laevis embryos = conditions: for Alive / dead: 15 embryos; for Body length / Eye distance: mean ± SD
# Method: Morphological measurements of microcephaly and growth retardation.
# Vitamin C treatment. Embryos at stage 13 (initial neural plate stage) were collected and divided into groups, each containing 15-20 embryos and incubated in a plastic petri dish containing MMR medium as stated above. Vitamin C, having a concentration of 100 μM, was added either concomitantly, 2 hours before, or 2 hours after the initiation of a 12-hour alcohol exposure. The tadpoles were fixed and measurements were made as stated above.
# rats = conditions: pregnant rats treated with folic acid concomitantly to ethanol administration; cited from earlier work
# [4] = system: embryonic hippocampal cultures; conditions: against 400-2400 mg/dl of ethanol treatment; cited from earlier work
# [5] = 100 μM VitC 2 hours after start of 12-hour 0.6% EtOH (Post-VitC)
# [6] = 100 μM VitC 2 hours before 12-hour 0.6% EtOH (Pre-VitC)
# [7] = 100 μM VitC concomitantly with 12-hour 0.6% EtOH
compound,measurement,setting,value
"OO [H2O2, hydrogen peroxide]","expression of Pax6, Otx2, Sox2, Sox3, and NCAM",[1]; animal caps treated with 100 M of H2O2 instead of alcohol,reduced the expression
"O=C1O[C@H]([C@@H](O)CO)C(O)=C1O [VitC, ascorbic acid]","forebrain areas, histology at stage 45",[2]; vitamin C 2 hours before addition of alcohol,significant restoration of the forebrain areas
same,width of the canal in diencephalon areas,[2]; vitamin C concomitantly with alcohol,could not narrow down the canal
same,ethanol-induced hydrogen peroxide level,[3],suppressed
same,Alive,Xenopus laevis embryos; [5],14
same,dead,Xenopus laevis embryos; [5],1
same,Body length,Xenopus laevis embryos; [5],9.60 ± 013^b mm
same,Eye distance,Xenopus laevis embryos; [5],1.82 ± 004^b mm
same,Alive,Xenopus laevis embryos; [6],14
same,dead,Xenopus laevis embryos; [6],1
same,Body length,Xenopus laevis embryos; [6],11.88 ± 006^a mm
same,Eye distance,Xenopus laevis embryos; [6],2.13 ± 002^a mm
same,Alive,Xenopus laevis embryos; [7],14
same,dead,Xenopus laevis embryos; [7],1
same,Body length,Xenopus laevis embryos; [7],10.19 ± 014^a mm
same,Eye distance,Xenopus laevis embryos; [7],"1.88 ± 003^a,b mm"
same,dead,"Xenopus laevis embryos; VitC alone, 100 μM, no ethanol",1
same,severity of alcohol-induced microencephaly and growth retardation,Xenopus laevis embryos; pretreating embryos with 100 μM vitamin C,significantly reduced the severity
same,expression of NCAM and Pax6 (RT-PCR),"[1]; ethanol treated embryos, vitamin C pretreatment",restored significantly
Nc1nc2ncc(CNc3ccc(C(=O)N[C@@H](CCC(=O)O)C(=O)O)cc3)nc2c(=O)[nH]1 [folic acid],amount of ethanol-mediated oxidative stress,rats,mitigated
CC1=C(/C=C/C(C)=C/C=C/C(C)=C/C=C/C=C(C)/C=C/C=C(C)/C=C/C2=C(C)CCCC2(C)C)C(C)(C)CCC1 [β-carotene],protection of embryonic hippocampal cultures,[4],protected
Vitamin E,protection of embryonic hippocampal cultures,[4],protected

# Reference: US20060037085A1, “Animal model for fetal alcohol syndrome and methods of treatment” (priority 2004, published 2006)
